Our source for the macrophage phagocytosis-enhancing activity, Cmax and Tmax values is PMC5855550, “Pharmacokinetic Study of Bioactive Flavonoids in the Traditional Japanese Medicine Keigairengyoto Exerting Antibacterial Effects against Staphylococcus aureus” (International Journal of Molecular Sciences, 2018).

Broadly, the Cmax is the maximum level reached in the sampled fluid or tissue. Broadly, the Tmax is the time at which the peak concentration occurs.

For one data set, the system named is macrophage. Also noted: method as in doi:10.24294/ti.v1.i1.31. The settings on record: previous data; cited from earlier work.
The nature of the next data set: in vivo. To be noted: Sprague-Dawley, rat, in vivo, po, 2 g/kg. On the procedure: To specifically deconjugate glucuronides, 80 μL of plasma sample was incubated with 50 μL of β-glucuronidase solution containing 200 units/mL β-glucuronidase from Escherichia coli (Sigma-Aldrich) for 2 h at 37 °C. The deconjugation reaction was stopped by adding ethyl acetate or by refrigerating the mixture considering the following procedures. This pretreated solution was injected into the two liquid chromatography–mass spectrometry with tandem mass spectrometry (LC-MS/MS) systems after pooling with an internal standard solution of niflumic acid (Sigma-Aldrich) or atropine (Wako Pure Chemical Industries, Osaka, Japan).
For quantification of apigenin, wogonin, wogonoside, hesperetin, naringenin, liquiritigenin, genistein, and luteolin in β-glucuronidase-naive (untreated) plasma, 200 µL plasma samples were pretreated by liquid-liquid extraction using ethyl acetate. The total supernatant was collected, dried, and concentrated using a centrifugal evaporator. The dried residue was then dissolved in 60 μL of the specific HPLC mobile phase used for each analytical method, and a 10 or 20 μL volume injected into the LC-MS/MS system.
For quantification of baicalin, baicalein, and berberine in untreated plasma, 80 µL of plasma was pretreated by solid-phase extraction using Oasis HLB 96-well µElution plate (Waters, Milford, MA, USA). The methanol eluates were collected, dried, and dissolved in 60 μL of the specific HPLC mobile phase. A 10 or 20 μL volume was then injected into the LC-MS/MS system.
For quantification of glycyrrhizic acid and glycyrrhetinic acid in untreated plasma, 100 µL plasma samples were pretreated by deproteinization using methanol. The supernatant was collected, dried, and concentrated using a centrifugal evaporator. The dried residue was then dissolved in 60 μL of the specific HPLC mobile phase used for the analytical method, and a 10 μL volume injected into the LC-MS/MS system.
For quantification of wogonin, wogonoside, hesperetin, naringenin, liquiritigenin, and genistein in treated plasma, the reaction solutions after deconjugation reactions were pretreated by liquid-liquid extraction. The supernatant was dissolved in 120 μL of the specific HPLC mobile phase, and a 10 or 15 μL volume injected into the LC-MS/MS system.
For quantification of apigenin, luteolin, baicalin, baicalein, and berberine in treated plasma, the reaction solutions after deconjugation were pretreated by solid-phase extraction by the method described above, and 10 or 15 μL of the solution dissolved in 50 μL of the specific HPLC mobile phase was injected into the LC-MS/MS system.
Pharmacokinetic parameters of flavonoids and glucuronide metabolites in KRT-administrated plasma with or without β-glucuronidase treatment were analyzed by noncompartmental modeling using Phoenix WinNonlin (version 6.3, Certara L.P., St. Louis, MO, USA) to determine various pharmacokinetic constants, including Cmax, tmax, t1/2, and AUC0–last. The t1/2 was […] loge2/ke, where ke is the terminal elimination rate constant determined from at least three data points on the descending linear limb.

`CC1(C)[C@@H](O)CC[C@]2(C)[C@H]3C(=O)C=C4[C@@H]5C[C@@](C)(C(=O)O)CC[C@]5(C)CC[C@@]4(C)[C@]3(C)CC[C@@H]12` [glycyrrhetinic acid]: the macrophage phagocytosis-enhancing activity result in the data set with macrophage was “no macrophage phagocytosis-enhancing activity”. Further, in the data set “in vivo”, the Cmax was found to be 121 ng/mL and the Tmax was determined as 6 h.
